What was measured:
[1] = solid state phase transformation of disturbed sample on heating by DSC; assay type: physicochemical; conditions: sample disturbed with scratching / stressed, DSC heating from 30° C. to approximately 200° C. at 10° C. per minute, followed by melt at about 160° C. (Form A)
Source text: Characterization of Form A of cilostazol, Form B of cilostazol, and Form C of cilostazol was further completed using DSC thermograms, shown in FIGS. 3, 4, and 5, respectively, with DSC thermograms for combinations of Form A and Form B; Form B and Form C; and Forms A, B, and C are shown in FIGS. 6, 7, and 8 respectively. DSC data were generated using a Mettler-Toledo DSC 821^e (Columbus, Ohio) with a Julabo FT900 intercooler chiller (Julabo Company; Allentown, Pa.). In general, samples were analyzed in a vented, sealed aluminum pan. Because the endothermic peak may vary depending upon the rate of heating and the calibration and precision of the instrument, with the amount of peak variation dependent upon the heating rate used, all thermograms included herein were run under the same, consistent conditions: heating at 10° C. per minute under a nitrogen purge at 40 mL/minute. The resultant sample of Example 1A was disturbed with scratching, which caused the cilostazol sample to undergo a solid state phase transformation at approximately 119° C. followed by an endotherm of melt at approximately 160° C. (Form A) during heating by DSC from 30° C. to approximately 200° C. at 10° C. per minute. When the sample is stressed and reheated (as detailed in Example 2A), the sample undergoes a solid state phase transformation at approximately 147° C. followed by an endotherm of melt at about 160° C. […]

[2] = stability of the crystalline form; assay type: physicochemical
[3] = aqueous solubility of cilostazol polymorphic forms; assay type: physicochemical
bioavailability = assay type: in vivo; conditions: Form A as prepared by the procedures of the '479 patent

O=C1CCc2cc(OCCCCc3nnnn3C3CCCCC3)ccc2N1 [Form C, 6-[4-(1-cyclohexyl-1H-tetrazol-5-yl)butoxy]-3,4-dihydro-2(1H)-quinolinone]
solid state phase transformation temperature (to Form A) ([1]; listed as Example 2A): approximately 147 °C

O=C1CCc2cc(OCCCCc3nnnn3C3CCCCC3)ccc2N1 [Form B, 6-[4-(1-cyclohexyl-1H-tetrazol-5-yl)butoxy]-3,4-dihydro-2(1H)-quinolinone]
solid state phase transformation temperature (to Form A) ([1]; listed as Example 1A): approximately 119 °C
stability of the polymorphic form [2]: stable
solubility relative to Form A ([3]; inferred from lower melting point in DSC thermogram (FIG. 8), solubility itself not measured): more soluble than Form A

O=C1CCc2cc(OCCCCc3nnnn3C3CCCCC3)ccc2N1 [Form A, 6-[4-(1-cyclohexyl-1H-tetrazol-5-yl)butoxy]-3,4-dihydro-2(1H)-quinolinone]
bioavailability (bioavailability): low
aqueous solubility ([3]; Form A as prepared by the procedures of the '479 patent): low

Reference: patent US6531603B1, “Polymorphic forms of 6-[4-(1-cyclohexyl-1H-tetrazol-5-yl)butoxy]-3,4-dihydro-2(1H)-quinolinone” (priority 2001, dated 2003)
